In PubChem BioAssay (NCI):
Values joined by “and” are separate entries in the source; they are usually repeats but may differ in a detail not shown here. Identical values can stand only once.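 Interpolation was linear, between the two tested concentrations surrounding the appropriate level; five concentrations were tested over 48 hours in 96-well plates. GI50 = concentration required for 50% inhibition of growth. TGI denotes the concentration required for complete inhibition of growth.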

Experiments:
Experiment in all cases: NCI tumour cell line growth inhibition, 48 h
SF-295 CNS = system: SF-295 CNS
A549 NSCLC = system: A549 NSCLC
RXF 393 renal = system: RXF 393 renal
HT29 colon = system: HT29 colon
SW-620 colon = system: SW-620 colon
NCI-H226 lung = system: NCI-H226 lung
HCT-15 colon = system: HCT-15 colon
HL-60(TB) leukemia = system: HL-60(TB) leukemia
SNB-75 CNS = system: SNB-75 CNS
UACC-62 melanoma = system: UACC-62 melanoma

SMILES	GI50 (SF-295 CNS) [µM]	TGI (SF-295 CNS) [µM]	GI50 (A549 NSCLC) [µM]	TGI (A549 NSCLC) [µM]	GI50 (RXF 393 renal) [µM]	TGI (RXF 393 renal) [µM]	GI50 (HT29 colon)	TGI (HT29 colon) [µM]	GI50 (SW-620 colon) [µM]	TGI (SW-620 colon) [µM]	GI50 (NCI-H226 lung)	TGI (NCI-H226 lung) [µM]	GI50 (HCT-15 colon) [µM]	TGI (HCT-15 colon) [µM]	GI50 (HL-60(TB) leukemia) [µM]	TGI (HL-60(TB) leukemia) [µM]	GI50 (SNB-75 CNS) [µM]	TGI (SNB-75 CNS) [µM]	GI50 (UACC-62 melanoma) [µM]	TGI (UACC-62 melanoma) [µM]
COc1cc(Nc2ncc(F)c(Nc3ccc4c(n3)NC(=O)C(C)(C)O4)n2)cc(OC)c1OC	4.4	> 10	4.75	> 10	0.418	5.89	1.32 µM and 2.01 µM	> 100	> 10	> 10	0.4 µM and 0.393 µM	> 100	4.75	> 10	> 10	> 10	0.385	> 10		
COc1ccc(C[C@@H]2NC[C@@H](O)[C@@H]2OC(C)=O)cc1	6.7	90	5.54			0.0674			4.16		5.27 µM			0.19	1.72			0.0692	3.19	
S=C(Nc1ccc(Cl)cc1)Nc1ccc(-c2nc3ccccc3o2)cc1	13.7	42.8	24.3	92.6	10.9	30.7	17.4 µM	41.8	19.8	60.3			10.9	25.7	32.2	> 100	37.7	72.2	12.7	27.7
Cc1ccc(C2NC(=O)c3ccccc3N2)s1 (configuration not stated)		6.87		> 100		> 100				> 100				> 100		8.17				> 100
CCN1C2=NCCN2S(=O)(=O)c2ccccc21		> 100		> 100		> 100		> 100		> 100		> 100		> 100		> 100				> 100
